Results published in patent US10941157B2, “Pesticidal compositions and uses thereof” (Gilead Apollo, LLC, priority 2015, dated 2021).
≈ marks a conversion by molar mass, not a printed value. Read-outs that look alike come from different tables or passages of the source.

Key:
[1] = test system: Fusarium virguliforme (Fv); test: In vitro pathogen growth inhibition assay, Fv; type: cell-based
Outline: (§1)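 Spores of Dm, Fv and Pc were diluted in 17% V8 liquid medium; Rs used 1.5 mm mycelial plugs in ¼ PDB. Compounds from 2.5 mg/ml DMSO stocks were combined with inoculum, growth was read by OD600 at 24 and 48 h with blank subtraction, and the reported value is the concentration giving ≥90% inhibition.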

[2] = test system: Septoria tritici (St); test: In vitro pathogen growth inhibition assay, St; type: cell-based; settings: Zymoseptoria tritici, 48 h
Outline: (§2)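 Value reported is the compound concentration reaching ≥90% growth inhibition, from OD readings at 24 and 48 h after blank subtraction, confirmed visually. Inoculum was spores diluted in 17% V8 medium, except Rs, using 1.5 mm mycelial plugs in ¼ PDB; actual compound concentration corrected via OD600.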

[3] = test system: Fusarium moniliforme (Fm); test: In vitro pathogen growth inhibition assay, Fm; type: cell-based; settings: Fusarium verticillioides
Outline: as §2

[4] = test system: Saccharomyces cerevisiae (Sc); test: Yeast growth inhibition assay; type: cell-based; settings: Saccharomyces cerevisiae, ≥75% inhibition, read-out: Compound Concentration (ppm) sufficient for ≥75% inhibition, Sc
Procedure: Both tables list the concentration of each compound that was sufficient to ≥90% inhibition of growth for each of the fungal pathogens listed above. In addition, some of compounds were tested in a yeast growth inhibition assay for Saccharomyces cerevisiae (Sc). Table 2 lists the concentration of the tested compound that was sufficient to ≥75% inhibition of Saccharomyces cerevisiae (Sc).

[5] = test system: Collectotrichum graminicola (Cg); test: In vitro pathogen growth inhibition assay, Cg; type: cell-based; settings: 48 h
Outline: as §2

[6] = test system: Botrtyis cinerea (Bc); test: In vitro pathogen growth inhibition assay, Bc; type: cell-based; settings: 48 h
Outline: as §2

[7] = test system: Phytophthora capsici (Pc); test: In vitro pathogen growth inhibition assay, Pc; type: cell-based; settings: 48 h
Outline: as §1

[8] = test system: Diplodia maydis (Dm); test: In vitro pathogen growth inhibition assay, Dm; type: cell-based; settings: Stenocarpella maydis, 48 h
Outline: as §1

[9] = test system: Rhizoctonia solani (Rs); test: In vitro pathogen growth inhibition assay, Rs (mycelial plugs); type: cell-based; settings: Rhizoctonia solani, 48 h, mycelial plugs
Outline: as §1

[10] = test system: Puccinia triticina; test: Foliar protection test for wheat leaf rust control; type: in vivo; settings: foliar application to wheat (Triticum aestivum cv. Winterhawk), evaluated 10 days later
[11] = test system: Phakopsora pachyrhizi; test: Foliar protection test for Asian soybean rust control; type: in vivo; settings: foliar application to soybean (Glycine max AG4832), percent disease area evaluated 14 days later
[12] = test system: Blumeria graminis f. sp. hordei; test: Foliar protection test for barley powdery mildew control; type: in vivo; settings: foliar spray on Hordeum vulgare cv. Perry, inoculated 24 hours after treatment, evaluated 7 days later
Outline: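 Protective foliar test: compound atomized onto both leaf surfaces of 6-day-old Hordeum vulgare cv. Perry, followed after 24 h by spore-cloud inoculation from colonized untreated plants. Disease rated on leaves 7 days on, plants held at 20 to 22° C and 70% RH.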

[13] = test system: Mycosphaerella graminicola (synthetic Septoria tritici); test: Foliar protection test for wheat septoria leaf blotch control; type: in vivo; settings: foliar spray on Triticum aestivum cv. WinterHawk, inoculated 1 hour after treatment, evaluated 16 days later
[14] = test system: Sphaerotheca fuliginea; test: Foliar protection for cucumber powdery mildew control; type: in vivo; settings: foliar spray on Cucumis sativus cv. Straight Eight, inoculated 24 hours after treatment, evaluated 7 days later
Outline: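 Protective foliar spray on 10-day-old Straight Eight cucumbers, with S. fuliginea spores dusted from infected stock plants 24 h after treatment. Disease developed at 23–27 °C, 60% RH and a 16 h photoperiod. Leaves were rated for mildew growth after 7 days; test rates 10 ppm or below.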

[15] = test system: Fusarium graminearum; type: in vivo; settings: spray on flowering Triticum aestivum cv. Samson, inoculated 24 hours after treatment, evaluated 14 days later
[16] = ≥90% inhibition, 48 hours vs 2% DMSO control, read-out: Compound Concentration (ppm) sufficient for ≥90% inhibition of growth, Fv
[17] = ≥90% inhibition, 48 hours vs 2% DMSO control, read-out: Compound Concentration (ppm) sufficient for ≥90% inhibition of growth, St
[18] = ≥90% inhibition, 48 hours vs 2% DMSO control, read-out: Compound Concentration (ppm) sufficient for ≥90% inhibition of growth, Fm
[19] = ≥90% inhibition, 48 hours vs 2% DMSO control, read-out: Compound Concentration (ppm) sufficient for ≥90% inhibition of growth, Cg
[20] = ≥90% inhibition, 48 hours vs 2% DMSO control, read-out: Compound Concentration (ppm) sufficient for ≥90% inhibition of growth, Bc
[21] = ≥90% inhibition, 48 hours vs 2% DMSO control, read-out: Compound Concentration (ppm) sufficient for ≥90% inhibition of growth, Pc
[22] = ≥90% inhibition, 48 hours vs 2% DMSO control, read-out: Compound Concentration (ppm) sufficient for ≥90% inhibition of growth, Dm
[23] = ≥90% inhibition, 48 hours vs 2% DMSO control, read-out: Compound Concentration (ppm) sufficient for ≥90% inhibition of growth, Rs
[24] = ≥90% growth inhibition, 48 hours, vs 2% DMSO control, read-out: Compound Concentration (ppm) sufficient for ≥90% inhibition of Fv
[25] = ≥90% growth inhibition, 48 hours, vs 2% DMSO control, read-out: Compound Concentration (ppm) sufficient for ≥90% inhibition of St
[26] = ≥90% growth inhibition, 48 hours, vs 2% DMSO control, read-out: Compound Concentration (ppm) sufficient for ≥90% inhibition of Fm
[27] = ≥90% growth inhibition, 48 hours, vs 2% DMSO control, read-out: Compound Concentration (ppm) sufficient for ≥90% inhibition of Cg
[28] = ≥90% growth inhibition, 48 hours, vs 2% DMSO control, read-out: Compound Concentration (ppm) sufficient for ≥90% inhibition of Bc
[29] = ≥90% growth inhibition, 48 hours, vs 2% DMSO control, read-out: Compound Concentration (ppm) sufficient for ≥90% inhibition of Pc
[30] = ≥90% growth inhibition, 48 hours, vs 2% DMSO control, read-out: Compound Concentration (ppm) sufficient for ≥90% inhibition of Dm
[31] = ≥90% growth inhibition, 48 hours, vs 2% DMSO control, read-out: Compound Concentration (ppm) sufficient for ≥90% inhibition of Rs

| SMILES | IC90 [1, 16] [mg/L] | IC90 [2, 17] [mg/L] | IC90 [3, 18] [mg/L] | IC75 [4] [mg/L] | IC90 [5, 19] [mg/L] | IC90 [6, 20] [mg/L] | IC90 [7, 21] [mg/L] | IC90 [8, 22] [mg/L] | IC90 [9, 23] [mg/L] | IC90 [1, 24] [mg/L] | Wheat Leaf Rust Control at a compound concentration of 10 ppm or lower [10] | IC90 [2, 25] [mg/L] | Asian Soybean Rust Control at a compound concentration of 25 ppm or lower [11] | Barley Powdery Mildew Control at a compound concentration of 10 ppm or lower [12] | IC90 [3, 26] [mg/L] | IC90 [5, 27] [mg/L] | IC90 [6, 28] [mg/L] | Septoria Leaf Blotch Control at a compound concentration of 25 ppm or lower [13] | Cucumber Powdery Mildew Control at a compound concentration of 10 ppm or lower [14] | IC90 [7, 29] [mg/L] | further results |
| --- | --- | --- | --- | --- | --- | --- | --- | --- | --- | --- | --- | --- | --- | --- | --- | --- | --- | --- | --- | --- | --- |
| COc1ccccc1[C@H](Cn1c(=O)n(C(C)(C)C(=O)NC(C)C)c(=O)c2c(C)c(-c3ncco3)sc21)OC(C)C [Compound I-001] | 0.4 (≈ 0.703 µM) | > 10 | 0.08 (≈ 0.141 µM) | 1.2 (≈ 2.11 µM) | ≥ 2 | ≥ 0.4 | > 50 | 2 (≈ 3.52 µM) | 50 (≈ 87.9 µM) |  |  |  |  |  |  |  |  |  |  |  |  |
| COc1ccccc1[C@H](Cn1c(=O)n(C(C)(C)C(=O)N2CCCCC2)c(=O)c2c(C)c(-c3ncco3)sc21)OC1CCOCC1 [Compound I-004] | 2 (≈ 3.14 µM) | > 10 | 0.08 (≈ 0.126 µM) | 3.7 (≈ 5.81 µM) | 2 (≈ 3.14 µM) | 0.4 (≈ 0.628 µM) | > 50 | 2 (≈ 3.14 µM) | 10 (≈ 15.7 µM) |  |  |  |  |  |  |  |  |  |  |  |  |
| COc1ccccc1[C@H](Cn1c(=O)n(C(C)(C)C(=O)N2CCCC2)c(=O)c2c(C)c(-c3ncco3)sc21)OC1CCOCC1 [Compound I-005] | 2 (≈ 3.21 µM) | > 10 | 0.08 (≈ 0.128 µM) | 0.4 (≈ 0.642 µM) | 2 (≈ 3.21 µM) | 2 (≈ 3.21 µM) | > 50 | 2 (≈ 3.21 µM) | 0.4 (≈ 0.642 µM) |  |  |  |  |  |  |  |  |  |  |  |  |
| CCOC(=O)c1sc2c(c1C)c(=O)n(C(C)(C)C(=O)N1CCCCC1)c(=O)n2C[C@H](OC(C)C)c1ccccc1OC [Compound I-006] | 0.4 (≈ 0.667 µM) | ≥ 2 | 0.08 (≈ 0.133 µM) | 1.2 (≈ 2 µM) | 0.4 (≈ 0.667 µM) | 0.4 (≈ 0.667 µM) | > 50 | 0.4 (≈ 0.667 µM) | 0.4 (≈ 0.667 µM) |  |  |  |  |  |  |  |  |  |  |  |  |
| COc1ccc(F)cc1[C@H](Cn1c(=O)n(C(C)(C)C(=O)NC2CCC2)c(=O)c2c(C)c(-n3cccn3)sc21)OCCC#N [Compound I-307, (R)-2-(1-(2-(2-cyanoethoxy)-2-(5-fluoro-2-methoxyphenyl)ethyl)-5-methyl-2,4-dioxo-6-(1H-pyrazol-1-yl)-1,4-dihydrothieno[2,3-d]pyrimidin-3 (2H)-yl)-N-cyclobutyl-2-methylpropanamide] |  |  |  |  |  |  |  |  |  | 0.4 (≈ 0.657 µM) | AA (≥85% control of wheat leaf rust) | > 50 | C (from 25 to 49% control of Asian soybean rust) | AA (≥85% control of barley powdery mildew) | 0.08 (≈ 0.131 µM) | 2 (≈ 3.29 µM) | ≥ 0.4 | B (from 50 to 69% control of wheat septoria leaf blotch) | AA (≥85% control of cucumber powdery mildew) | > 50 | IC90 [8, 30]: 2 mg/L (≈ 3.29 µM); IC90 [9, 31]: 0.08 mg/L (≈ 0.131 µM); Wheat Fusarium Head Blight Control at a compound concentration of 25 ppm or lower [15]: C (from 25 to 49% control of wheat fusarium head blight) |
| COc1ccc(F)cc1[C@H](Cn1c(=O)n([C@H](C)C(=O)NC2CCC2)c(=O)c2c(C)c(-n3cccn3)sc21)OCCC#N [Compound I-308, (R)-2-(1-((R)-2-(2-cyanoethoxy)-2-(5-fluoro-2-methoxyphenyl)ethyl)-5-methyl-2,4-dioxo-6-(1H-pyrazol-1-yl)-1,4-dihydrothieno[2,3-d]pyrimidin-3 (2H)-yl)-N-cyclobutylpropanamide] |  |  |  |  |  |  |  |  |  | 2 (≈ 3.36 µM) | AA (≥85% control of wheat leaf rust) | > 50 | C (from 25 to 49% control of Asian soybean rust) | AA (≥85% control of barley powdery mildew) | 0.4 (≈ 0.673 µM) | 2 (≈ 3.36 µM) | 0.4 (≈ 0.673 µM) | AA (≥85% control of wheat septoria leaf blotch) | AA (≥85% control of cucumber powdery mildew) | 50 (≈ 84.1 µM) | IC90 [8, 30]: 2 mg/L (≈ 3.36 µM); IC90 [9, 31]: 0.08 mg/L (≈ 0.135 µM); Wheat Fusarium Head Blight Control at a compound concentration of 25 ppm or lower [15]: C (from 25 to 49% control of wheat fusarium head blight) |
| COc1ccccc1[C@@H](O)Cn1c(=O)n(C(C)(C)C(=O)NC(C)C)c(=O)c2c(C)c(-n3nccn3)sc21 [Compound I-316, (R)-2-(1-(2-hydroxy-2-(2-methoxyphenyl)ethyl)-5-methyl-2,4-dioxo-6-(2H-1,2,3-triazol-2-yl)-1,4-dihydrothieno[2,3-d]pyrimidin-3 (2H)-yl)-N-isopropyl-2-methylpropanamide] |  |  |  |  |  |  |  |  |  | 0.08 (≈ 0.152 µM) | AA (≥85% control of wheat leaf rust) | > 50 | A (from 70% to 84% control of Asian soybean rust) | AA (≥85% control of barley powdery mildew) | 0.08 (≈ 0.152 µM) | 2 (≈ 3.8 µM) | 0.4 (≈ 0.76 µM) | A (from 70% to 84% control of wheat septoria leaf blotch) | AA (≥85% control of cucumber powdery mildew) | ≥ 10 | IC90 [8, 30]: 2 mg/L (≈ 3.8 µM); IC90 [9, 31]: 0.08 mg/L (≈ 0.152 µM); Wheat Fusarium Head Blight Control at a compound concentration of 25 ppm or lower [15]: C (from 25 to 49% control of wheat fusarium head blight) |
| COc1ccc(F)cc1[C@H](Cn1c(=O)n(C(C)(C)C(=O)NC(C)C)c(=O)c2c(C)c(-n3nccn3)sc21)OC(C)=O [Compound I-323, (R)-1-(5-fluoro-2-methoxyphenyl)-2-(3-(1-(isopropylamino)-2-methyl-1-oxopropan-2-yl)-5-methyl-2,4-dioxo-6-(2H-1,2,3-triazol-2-yl)-3,4-dihydrothieno[2,3-d]pyrimidin-1(2H)-yl)ethyl acetate] |  |  |  |  |  |  |  |  |  | 0.08 | AA (≥85% control of wheat leaf rust) | > 50 | AA (≥85% control of Asian soybean rust) | AA (≥85% control of barley powdery mildew) | 0.08 | 0.4 | 0.4 | AA (≥85% control of wheat septoria leaf blotch) | AA (≥85% control of cucumber powdery mildew) | > 50 | IC90 [8, 30]: ≥ 0.4 mg/L; IC90 [9, 31]: 0.08 mg/L; Wheat Fusarium Head Blight Control at a compound concentration of 25 ppm or lower [15]: C (from 25 to 49% control of wheat fusarium head blight) |
